Test results reported in ChEMBL document CHEMBL4387741, “Optimization of novel reversible Bruton's tyrosine kinase inhibitors identified using Tethering-fragment-based screens” (Bioorg Med Chem, 2019).

Legend:
[1] = target: Tyrosine-protein kinase ABL2 (Homo sapiens) (UniProt P42684); test: Inhibition of wild-type human ABL2 (A248 to G542 residues) expressed in bacterial expression system at 1 uM by Kinomescan method relative to control
[2] = target: RAC-alpha serine/threonine-protein kinase (Homo sapiens) (UniProt P31749); test: Inhibition of wild-type human partial length AKT1 expressed in bacterial expression system at 1 uM by Kinomescan method relative to control
[3] = target: BMP-2-inducible protein kinase (Homo sapiens) (UniProt Q9NSY1); test: Inhibition of wild-type human partial length BIKE (S34 to N329 residues) expressed in bacterial expression system at 1 uM by Kinomescan method relative to control
[4] = target: Calcium/calmodulin-dependent protein kinase type IV (Homo sapiens) (UniProt Q16566); test: Inhibition of wild-type human partial length CAMK4 (A22 to A322 residues) expressed in bacterial expression system at 1 uM by Kinomescan method relative to control
[5] = target: Casein kinase I isoform delta (Homo sapiens) (UniProt P48730); test: Inhibition of wild-type human full length CSNK1D (M1 to K409 residues) expressed in bacterial expression system at 1 uM by Kinomescan method relative to control
[6] = target: Dual specificity tyrosine-phosphorylation-regulated kinase 1B (Homo sapiens) (UniProt Q9Y463); test: Inhibition of wild-type human full length DYRK1B (M1 to S629 residues) expressed in bacterial expression system at 1 uM by Kinomescan method relative to control
[7] = target: Tyrosine-protein kinase ITK/TSK (Homo sapiens) (UniProt Q08881); test: Inhibition of wild-type human partial length ITK (R335 to L620 residues) expressed in bacterial expression system at 1 uM by Kinomescan method relative to control
[8] = target: Mitogen-activated protein kinase kinase kinase 2 (Homo sapiens) (UniProt Q9Y2U5); test: Inhibition of wild-type human partial length MAP3K2 (S315 to H619 residues) expressed in mammalian expression system at 1 uM by Kinomescan method relative to control
[9] = target: Dual specificity mitogen-activated protein kinase kinase 1 (Homo sapiens) (UniProt Q02750); test: Inhibition of wild-type human full length MEK1 (M1 to V393 residues) expressed in mammalian expression system at 1 uM by Kinomescan method relative to control
[10] = target: Misshapen-like kinase 1 (Homo sapiens) (UniProt Q8N4C8); test: Inhibition of wild-type human partial length MINK (M1 to K312 residues) expressed in mammalian expression system at 1 uM by Kinomescan method relative to control
[11] = target: Myosin light chain kinase family member 4 (Homo sapiens) (UniProt Q86YV6); test: Inhibition of wild-type human partial length MYLK4 (V79 to S380 residues) expressed in bacterial expression system at 1 uM by Kinomescan method relative to control
[12] = target: Membrane-associated tyrosine- and threonine-specific cdc2-inhibitory kinase (Homo sapiens) (UniProt Q99640); test: Inhibition of wild-type human partial length PKMYT1 (A88 to G366 residues) expressed in bacterial expression system at 1 uM by Kinomescan method relative to control
[13] = target: Testis-specific serine/threonine-protein kinase 3 (Homo sapiens) (UniProt Q96PN8); test: Inhibition of wild-type human full length TSSK3 (M1 to T268 residues) expressed in mammalian expression system at 1 uM by Kinomescan method relative to control
[14] = target: Activin receptor type-1 (Homo sapiens) (UniProt Q04771); test: Inhibition of wild-type human ACVR1 (C188 to C509 residues) expressed in bacterial expression system at 10 uM by Kinomescan method relative to control
[15] = target: Activin receptor type-1-like (Homo sapiens) (UniProt P37023); test: Inhibition of wild-type human ACVRL1 (L164 to Q503 residues) expressed in bacterial expression system at 10 uM by Kinomescan method relative to control
[16] = target: Serine/threonine-protein kinase BRSK2 (Homo sapiens) (UniProt Q8IWQ3); test: Inhibition of wild-type human full length BRSK2 (M1 to L674 residues) expressed in bacterial expression system at 10 uM by Kinomescan method relative to control
[17] = target: Death-associated protein kinase 1 (Homo sapiens) (UniProt P53355); test: Inhibition of wild-type human partial length DAPK1 (M1 to F296 residues) expressed in bacterial expression system at 10 uM by Kinomescan method relative to control
[18] = target: Mitogen-activated protein kinase 1 (Homo sapiens) (UniProt P28482); test: Inhibition of wild-type human full length ERK2 (M1 to S360 residues) expressed in bacterial expression system at 10 uM by Kinomescan method relative to control
[19] = target: Serine/threonine-protein kinase 10 (Homo sapiens) (UniProt O94804); test: Inhibition of wild-type human partial length LOK (E16 to V314 residues) expressed in bacterial expression system at 10 uM by Kinomescan method relative to control
[20] = target: Mitogen-activated protein kinase kinase kinase 13 (Homo sapiens) (UniProt O43283); test: Inhibition of wild-type human full length LZK (M1 to W966 residues) expressed in mammalian expression system at 10 uM by Kinomescan method relative to control
[21] = target: Mitogen-activated protein kinase kinase kinase 4 (Homo sapiens) (UniProt Q9Y6R4); test: Inhibition of wild-type human partial length MAP3K4 (G1319 to E1608 residues) expressed in bacterial expression system at 10 uM by Kinomescan method relative to control
[22] = target: Serine/threonine-protein kinase 38-like (Homo sapiens) (UniProt Q9Y2H1); test: Inhibition of wild-type human partial length NDR2 (N34 to E447 residues) expressed in bacterial expression system at 10 uM by Kinomescan method relative to control
[23] = target: Serine/threonine-protein kinase PAK 4 (Homo sapiens) (UniProt O96013); test: Inhibition of wild-type human partial length PAK4 (Q144 to R438 residues) expressed in bacterial expression system at 10 uM by Kinomescan method relative to control
[24] = target: Cyclin-dependent kinase 16 (Homo sapiens) (UniProt Q00536); test: Inhibition of wild-type human partial length PCTK1 (G160 to A474 residues) expressed in mammalian expression system at 10 uM by Kinomescan method relative to control
[25] = target: Serine/threonine-protein kinase D1 (Homo sapiens) (UniProt Q15139); test: Inhibition of wild-type human partial length PRKD1 (G551 to E870 residues) expressed in bacterial expression system at 10 uM by Kinomescan method relative to control
[26] = target: Proto-oncogene tyrosine-protein kinase Src (Homo sapiens) (UniProt P12931); test: Inhibition of wild-type human partial length SRC (L240 to L536 residues) expressed in bacterial expression system at 10 uM by Kinomescan method relative to control
[27] = target: TGF-beta receptor type-1 (Homo sapiens) (UniProt P36897); test: Inhibition of wild-type human partial length TGFBR1 (D179 to M503 residues) expressed in bacterial expression system at 10 uM by Kinomescan method relative to control

Chain of Dual specificity mitogen-activated protein kinase kinase 1 (Homo sapiens) (Q02750 whole entry, the tested form may be a part): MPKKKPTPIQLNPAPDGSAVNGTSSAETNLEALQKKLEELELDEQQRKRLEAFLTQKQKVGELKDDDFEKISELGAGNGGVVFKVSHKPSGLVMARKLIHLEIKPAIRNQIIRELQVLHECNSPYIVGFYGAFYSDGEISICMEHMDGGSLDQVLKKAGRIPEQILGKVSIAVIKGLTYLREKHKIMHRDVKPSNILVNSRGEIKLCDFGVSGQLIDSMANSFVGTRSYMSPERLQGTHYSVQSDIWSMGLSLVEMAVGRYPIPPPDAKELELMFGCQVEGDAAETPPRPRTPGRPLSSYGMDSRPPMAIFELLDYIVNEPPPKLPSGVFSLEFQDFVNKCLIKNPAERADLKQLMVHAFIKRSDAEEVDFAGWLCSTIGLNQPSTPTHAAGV
Chain of Tyrosine-protein kinase ITK/TSK (Homo sapiens) (Q08881 whole entry, the tested form may be a part): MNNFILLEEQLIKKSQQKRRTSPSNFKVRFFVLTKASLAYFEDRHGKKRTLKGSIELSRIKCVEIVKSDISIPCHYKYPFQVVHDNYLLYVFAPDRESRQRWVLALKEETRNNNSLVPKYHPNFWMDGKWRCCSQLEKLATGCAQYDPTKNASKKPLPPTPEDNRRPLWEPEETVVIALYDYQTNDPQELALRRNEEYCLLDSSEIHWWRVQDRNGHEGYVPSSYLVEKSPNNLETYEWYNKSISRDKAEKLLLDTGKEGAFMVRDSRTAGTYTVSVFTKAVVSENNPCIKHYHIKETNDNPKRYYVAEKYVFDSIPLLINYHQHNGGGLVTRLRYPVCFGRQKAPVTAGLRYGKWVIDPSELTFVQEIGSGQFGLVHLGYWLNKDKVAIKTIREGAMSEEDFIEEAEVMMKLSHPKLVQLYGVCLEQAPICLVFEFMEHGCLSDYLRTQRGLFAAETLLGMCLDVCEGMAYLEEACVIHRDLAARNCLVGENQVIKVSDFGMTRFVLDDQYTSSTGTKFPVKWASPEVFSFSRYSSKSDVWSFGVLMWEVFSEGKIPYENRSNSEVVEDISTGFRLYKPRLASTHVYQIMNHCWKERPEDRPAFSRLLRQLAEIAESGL
Chain of Mitogen-activated protein kinase kinase kinase 13 (Homo sapiens) (O43283 whole entry, the tested form may be a part): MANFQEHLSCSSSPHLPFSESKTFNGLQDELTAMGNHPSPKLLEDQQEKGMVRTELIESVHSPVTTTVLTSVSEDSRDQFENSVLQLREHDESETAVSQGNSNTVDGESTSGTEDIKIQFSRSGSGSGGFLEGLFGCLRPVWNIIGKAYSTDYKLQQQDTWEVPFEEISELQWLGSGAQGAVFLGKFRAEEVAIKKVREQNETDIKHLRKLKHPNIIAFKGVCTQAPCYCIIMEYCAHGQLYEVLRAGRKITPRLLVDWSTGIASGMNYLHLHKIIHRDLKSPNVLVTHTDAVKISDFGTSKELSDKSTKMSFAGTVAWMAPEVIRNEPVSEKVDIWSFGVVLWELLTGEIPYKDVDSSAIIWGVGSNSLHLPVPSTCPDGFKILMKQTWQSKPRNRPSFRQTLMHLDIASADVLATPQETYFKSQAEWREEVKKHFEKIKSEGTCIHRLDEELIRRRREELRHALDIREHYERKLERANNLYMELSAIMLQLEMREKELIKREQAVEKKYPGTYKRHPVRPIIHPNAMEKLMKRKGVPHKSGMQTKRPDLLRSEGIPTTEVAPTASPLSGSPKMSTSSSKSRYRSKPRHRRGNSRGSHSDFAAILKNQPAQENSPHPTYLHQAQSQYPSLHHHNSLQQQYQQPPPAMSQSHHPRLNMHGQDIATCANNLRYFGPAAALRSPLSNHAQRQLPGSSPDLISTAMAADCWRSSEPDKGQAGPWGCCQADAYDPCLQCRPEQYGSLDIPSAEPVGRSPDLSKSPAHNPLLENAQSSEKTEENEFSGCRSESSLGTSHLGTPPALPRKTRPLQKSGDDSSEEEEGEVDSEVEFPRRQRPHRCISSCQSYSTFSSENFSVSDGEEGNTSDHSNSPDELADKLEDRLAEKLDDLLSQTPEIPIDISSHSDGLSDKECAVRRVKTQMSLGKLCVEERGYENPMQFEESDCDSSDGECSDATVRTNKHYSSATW
Chain of Misshapen-like kinase 1 (Homo sapiens) (Q8N4C8 whole entry, looked up, the tested form may be a part): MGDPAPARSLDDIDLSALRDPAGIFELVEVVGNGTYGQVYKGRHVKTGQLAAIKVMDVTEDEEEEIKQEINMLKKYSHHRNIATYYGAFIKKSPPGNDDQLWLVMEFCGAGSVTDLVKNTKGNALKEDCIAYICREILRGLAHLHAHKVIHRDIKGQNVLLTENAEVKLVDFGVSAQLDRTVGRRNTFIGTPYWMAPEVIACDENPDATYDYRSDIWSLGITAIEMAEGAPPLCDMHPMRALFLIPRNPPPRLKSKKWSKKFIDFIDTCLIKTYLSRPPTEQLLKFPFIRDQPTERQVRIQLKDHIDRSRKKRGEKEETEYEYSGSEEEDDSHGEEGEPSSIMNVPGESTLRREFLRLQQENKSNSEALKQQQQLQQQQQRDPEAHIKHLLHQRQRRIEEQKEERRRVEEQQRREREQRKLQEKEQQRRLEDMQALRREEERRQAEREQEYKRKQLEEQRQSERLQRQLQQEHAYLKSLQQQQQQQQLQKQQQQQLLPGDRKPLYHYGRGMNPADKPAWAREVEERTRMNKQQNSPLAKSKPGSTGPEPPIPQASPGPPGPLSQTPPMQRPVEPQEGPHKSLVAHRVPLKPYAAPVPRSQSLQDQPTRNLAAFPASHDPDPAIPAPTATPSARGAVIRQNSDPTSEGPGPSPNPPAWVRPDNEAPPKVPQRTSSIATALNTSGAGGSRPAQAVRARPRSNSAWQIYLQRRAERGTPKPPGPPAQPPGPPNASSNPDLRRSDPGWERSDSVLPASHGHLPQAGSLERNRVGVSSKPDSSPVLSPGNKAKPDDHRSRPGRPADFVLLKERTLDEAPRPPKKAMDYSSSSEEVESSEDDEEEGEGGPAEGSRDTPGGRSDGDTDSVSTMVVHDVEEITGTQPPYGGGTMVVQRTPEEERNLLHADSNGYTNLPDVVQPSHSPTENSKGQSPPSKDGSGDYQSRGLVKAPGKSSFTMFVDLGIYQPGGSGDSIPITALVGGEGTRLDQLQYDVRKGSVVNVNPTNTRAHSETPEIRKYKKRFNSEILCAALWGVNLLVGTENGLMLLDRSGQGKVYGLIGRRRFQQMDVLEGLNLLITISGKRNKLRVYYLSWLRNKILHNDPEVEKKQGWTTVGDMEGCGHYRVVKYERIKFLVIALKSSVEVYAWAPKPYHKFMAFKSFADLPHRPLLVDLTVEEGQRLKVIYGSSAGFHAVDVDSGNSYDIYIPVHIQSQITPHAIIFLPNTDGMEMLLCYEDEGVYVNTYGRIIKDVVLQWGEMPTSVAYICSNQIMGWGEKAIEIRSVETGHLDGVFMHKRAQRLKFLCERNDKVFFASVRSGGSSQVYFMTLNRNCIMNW
Chain of Serine/threonine-protein kinase BRSK2 (Homo sapiens) (Q8IWQ3 whole entry, the tested form may be a part): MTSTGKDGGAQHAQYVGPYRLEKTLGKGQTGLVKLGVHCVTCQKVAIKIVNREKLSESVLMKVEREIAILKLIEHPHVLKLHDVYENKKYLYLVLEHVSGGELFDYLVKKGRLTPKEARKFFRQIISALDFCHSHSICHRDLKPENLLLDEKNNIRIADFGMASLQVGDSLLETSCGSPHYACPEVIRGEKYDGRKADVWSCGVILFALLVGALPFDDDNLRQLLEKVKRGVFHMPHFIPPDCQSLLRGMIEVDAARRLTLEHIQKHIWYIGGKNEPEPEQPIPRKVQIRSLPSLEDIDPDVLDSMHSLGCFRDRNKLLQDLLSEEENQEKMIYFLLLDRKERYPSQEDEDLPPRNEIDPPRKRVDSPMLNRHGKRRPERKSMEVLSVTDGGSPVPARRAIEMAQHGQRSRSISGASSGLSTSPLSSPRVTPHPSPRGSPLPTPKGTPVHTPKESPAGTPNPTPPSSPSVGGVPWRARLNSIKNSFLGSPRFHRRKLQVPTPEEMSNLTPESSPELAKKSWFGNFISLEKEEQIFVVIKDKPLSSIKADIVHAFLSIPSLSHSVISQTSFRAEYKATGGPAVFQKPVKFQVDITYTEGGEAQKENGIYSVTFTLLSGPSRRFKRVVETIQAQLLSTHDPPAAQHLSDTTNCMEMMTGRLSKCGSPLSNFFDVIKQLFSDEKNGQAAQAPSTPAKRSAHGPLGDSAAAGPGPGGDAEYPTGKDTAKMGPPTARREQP
Chain of Serine/threonine-protein kinase 10 (Homo sapiens) (O94804 whole entry, looked up, the tested form may be a part): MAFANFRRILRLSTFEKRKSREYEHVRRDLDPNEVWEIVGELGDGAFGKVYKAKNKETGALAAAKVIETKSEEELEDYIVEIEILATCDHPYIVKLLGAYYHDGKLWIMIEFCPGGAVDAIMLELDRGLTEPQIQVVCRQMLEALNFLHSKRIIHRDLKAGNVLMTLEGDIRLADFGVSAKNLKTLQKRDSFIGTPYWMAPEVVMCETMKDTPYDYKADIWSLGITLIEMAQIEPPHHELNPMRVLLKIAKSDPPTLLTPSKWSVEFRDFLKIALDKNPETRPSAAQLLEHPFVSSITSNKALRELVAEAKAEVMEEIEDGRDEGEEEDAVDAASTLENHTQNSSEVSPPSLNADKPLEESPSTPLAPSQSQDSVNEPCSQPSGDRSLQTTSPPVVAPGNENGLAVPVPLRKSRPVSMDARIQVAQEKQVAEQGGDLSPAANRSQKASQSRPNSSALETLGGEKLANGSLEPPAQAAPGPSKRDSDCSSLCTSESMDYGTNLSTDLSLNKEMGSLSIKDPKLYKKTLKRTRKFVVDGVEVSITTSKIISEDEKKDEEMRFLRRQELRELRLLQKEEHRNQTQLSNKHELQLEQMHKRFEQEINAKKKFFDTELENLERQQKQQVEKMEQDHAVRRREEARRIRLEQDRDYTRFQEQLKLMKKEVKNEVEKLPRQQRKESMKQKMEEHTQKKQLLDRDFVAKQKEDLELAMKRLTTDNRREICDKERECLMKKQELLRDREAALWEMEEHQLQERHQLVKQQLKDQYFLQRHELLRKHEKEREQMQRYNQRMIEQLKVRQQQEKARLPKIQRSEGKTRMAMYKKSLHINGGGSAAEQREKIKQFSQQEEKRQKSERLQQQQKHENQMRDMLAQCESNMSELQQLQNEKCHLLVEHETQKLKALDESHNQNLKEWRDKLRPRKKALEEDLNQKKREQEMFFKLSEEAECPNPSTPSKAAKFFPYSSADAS

## O=C(Nc1cccc([C@@H]2CN(c3ncnc4[nH]ccc34)CCN2CCO)c1)Nc1c(F)cccc1N1CCCC1
[1]
  inhibition: 97%
[2]
  inhibition: 100%
[3]
  inhibition: 39%
[4]
  inhibition: 100%
[5]
  inhibition: 100%
[6]
  inhibition: 95%
[7]
  inhibition: 0.8%
[8]
  inhibition: 40%
[9]
  inhibition: 68%
[10]
  inhibition: 69%
[11]
  inhibition: 100%
[12]
  inhibition: 84%
[13]
  inhibition: 43%

## O=C(Nc1cccc([C@H]2CCCN(c3ncnc4[nH]ccc34)C2)c1)Nc1ccccc1N1CCCC1
[14]
  inhibition: 100%
[15]
  inhibition: 100%
[16]
  inhibition: 92%
[17]
  inhibition: 4%
[18]
  inhibition: 100%
[19]
  inhibition: 0.45%
[20]
  inhibition: 100%
[21]
  inhibition: 87%
[22]
  inhibition: 100%
[23]
  inhibition: 54%
[24]
  inhibition: 70%
[25]
  inhibition: 100%
[26]
  inhibition: 80%
[27]
  inhibition: 96%
